Results on four compounds are retold here after paper PMC8508980, “Design, Synthesis and Anticancer Profile of New 4-(1H-benzo[d]imidazol-1-yl)pyrimidin-2-amine-Linked Sulfonamide Derivatives with V600EBRAF Inhibitory Effect” (International Journal of Molecular Sciences, 2021).

What all share (test): NCI 60 cell line screen
What all share (format): cell-based

For one assay, the system named is MCF7. The note with it: Homo sapiens; MCF7, Breast Cancer; read-out: Percent growth. Here is the method: (§1) Anticancer profiling over a panel of 60 cancer cell lines was carried out at the National Cancer Institute (NCI), Bethesda, Maryland, USA, https://dtp.cancer.gov/discovery_development/nci-60/methodology.htm (Last visit 22 September 2021), using the standard procedure (detailed procedure is located in the Supplementary Information page 50 s).
(§2) NCI standard procedure for 60 cell lines assay
(§3) The human tumor cell lines of the cancer screening panel are grown in RPMI 1640 mediu m containing 5% fetal bovine serum and 2 mM L-glutamine. For a typical screening experiment, cells are inoculated into 96 well microtiter plates in 100 μL at plating densities ranging from 5,000 to 40,000 cells/well depending on the doubling time of individual cell lines. After cell inoculation, the microtiter plates are incubated at 37° C, 5 % CO2, 95 % air and 100 % relative humidity for 24 h prior to addition of experimental drugs.
(§4) After 24 h, two plates of each cell line are fixed in situ with TCA, to represent a measurement of the cell population for each cell line at the time of drug addition (Tz). Experimental drugs are solubilized in dimethyl sulfoxide at 400-fold the desired final maximum test concentration (10 µM) and stored frozen prior to use. At the time of drug addition, an aliquot of frozen concentrate is thawed and diluted to twice the desired final maximum test concentration with co mp lete medium containing 50 μg/ml gentamicin. Additional four, 10-fold or ½ log serial dilutions are made to provide a total of five drug concentrations plus control. Aliquots of 100 μl of these different drug dilutions are added to the appropriate microtiter wells already containing 100 μl of medium, resulting in the required final drug concentrations.
(§5) Following drug addition, the plates are incubated for an additional 48 h at 37°C, 5 % CO2, 95 % air, and 100 % relative humidity. For adherent cells, the assay is terminated by the addition of cold TCA. Cells are fixed in situ by the gentle addition of 50 μl of cold 50 % (w/v) TCA (final concentration, 10 % TCA) and incubated for 60 minutes at 4°C. The supernatant is discarded, and the plates are washed five times with tap water and air dried. Sulforhodamine B (SRB) solution (100 μl) at 0.4 % (w/v) in 1 % acetic acid is added to each well, and plates are incubated for 10 minutes at room temperature. After staining, unbound dye is removed by washing five times with 1 % acetic acid and the plates are air dried. Bound stain is subsequently solubilized with 10 mM trizma base, and the absorbance is read on an automated plate reader at a wavelength of 515 nm. For suspension cells, the methodology is the same except that the assay is terminated by fixing settled cells at the bottom of the wells by g ently adding 50 μl of 80 % TCA (final concentration, 16 % TCA). Using the seven absorbance measurements [time zero, (Tz), control growth, (C), and test growth in the presence of drug at the five concentration levels (Ti)], the percentage growth is calculated at each of the drug concentrations levels. Percentage growth inhibition is calculated as:
(§6) [(Ti-Tz)/(C-Tz)] x 100 for concentrations for which Ti>/=Tz
(§7) [(Ti-Tz)/Tz] x 100 for concentrations for which Ti<Tz.
(§8) Three dose response parameters are calculated for each experimental agent. Growth inhibition of […]
(§9) resulting in a 50% reduction in the net protein increase (as measured by SRB staining) in control cells during the drug incubation. The drug concentration resulting in total growth inhibition […]
(§10) (TGI) is calculated from Ti = Tz.

Another assay relates to A549/ATCC. The note with it: Homo sapiens, Non-Small Cell Lung Cancer, read-out: Percent growth. Here is the method:
as §1, §2, §3, §4, §5, §6, §7, §8, §9, §10

In the next assay the test system is OVCAR-8. The note with it: Homo sapiens; OVCAR-8, Ovarian Cancer; read-out: Percent growth. On the procedure: as §1, §2, §3, §4, §5, §6, §7, §8, §9, §10
A further assay has as its system SF-539. The settings on record: Homo sapiens; SF-539, CNS-Cancer; read-out: Percent growth. On the procedure:
as §1, §2, §3, §4, §5, §6, §7, §8, §9, §10

A further assay has as its system OVCAR-3. The settings on record: Homo sapiens; OVCAR-3, Ovarian Cancer; read-out: Percent growth. On the procedure:
as §1, §2, §3, §4, §5, §6, §7, §8, §9, §10

A further assay relates to COLO 205. The note with it: Homo sapiens; COLO 205, Colon Cancer; read-out: Percent growth. On the procedure:
as §1, §2, §3, §4, §5, §6, §7, §8, §9, §10

Another assay concerns IGROV1. The settings on record: Homo sapiens, IGROV-1; IGROV1, Ovarian Cancer; read-out: Percent growth. On the procedure:
as §1, §2, §3, §4, §5, §6, §7, §8, §9, §10

The test system of another assay is NCI-H322M. The settings on record: Homo sapiens, Non-Small Cell Lung Cancer, read-out: Percent growth. Here is the method: as §1, §2, §3, §4, §5, §6, §7, §8, §9, §10
For a further assay, the system named is MDA-MB-435. The settings on record: Homo sapiens; MDA-MB-435, Melanoma; read-out: Percent growth. Here is the method:
as §1, §2, §3, §4, §5, §6, §7, §8, §9, §10

Another assay relates to SN12C. The note with it: Homo sapiens, Renal Cancer, read-out: Percent growth. On the procedure: as §1, §2, §3, §4, §5, §6, §7, §8, §9, §10
A further assay relates to MDA-MB-231/ATCC. The settings on record: Homo sapiens, Breast Cancer, read-out: Percent growth. On the procedure:
as §1, §2, §3, §4, §5, §6, §7, §8, §9, §10

The next assay concerns HL-60(TB). The note with it: Homo sapiens, Leukemia, read-out: Percent growth. Here is the method: as §1, §2, §3, §4, §5, §6, §7, §8, §9, §10
In another assay the test system is LOX IMVI. The note with it: Homo sapiens, Melanoma, read-out: Percent growth. On the procedure: as §1, §2, §3, §4, §5, §6, §7, §8, §9, §10
For another assay, the system named is A498. The settings on record: Homo sapiens; A498, Renal Cancer; read-out: Percent growth. On the procedure:
as §1, §2, §3, §4, §5, §6, §7, §8, §9, §10

The test system of the next assay is SF-268. The settings on record: Homo sapiens; SF-268, CNS-Cancer; read-out: Percent growth. On the procedure: as §1, §2, §3, §4, §5, §6, §7, §8, §9, §10
For the next assay, the system named is BT-549. The settings on record: Homo sapiens; BT-549, Breast Cancer; read-out: Percent growth. Here is the method:
as §1, §2, §3, §4, §5, §6, §7, §8, §9, §10

The subject of a further assay is MALME-3M. The note with it: Homo sapiens, Melanoma, read-out: Percent growth. On the procedure: as §1, §2, §3, §4, §5, §6, §7, §8, §9, §10
A further assay relates to CCRF-CEM. The note with it: Homo sapiens, Leukemia, read-out: Percent growth. Here is the method: as §1, §2, §3, §4, §5, §6, §7, §8, §9, §10
The subject of another assay is DU-145. The note with it: Homo sapiens; DU-145, Prostate Cancer; read-out: Percent growth. On the procedure: as §1, §2, §3, §4, §5, §6, §7, §8, §9, §10
For another assay, the system named is OVCAR-5. The settings on record: Homo sapiens; OVCAR-5, Ovarian Cancer; read-out: Percent growth. Here is the method:
as §1, §2, §3, §4, §5, §6, §7, §8, §9, §10

The subject of a further assay is SK-OV-3. The note with it: Homo sapiens; SK-OV-3, Ovarian Cancer; read-out: Percent growth. Here is the method: as §1, §2, §3, §4, §5, §6, §7, §8, §9, §10
A further assay has as its system HCT-116. The settings on record: Homo sapiens; HCT-116, Colon Cancer; read-out: Percent growth. On the procedure:
as §1, §2, §3, §4, §5, §6, §7, §8, §9, §10

The subject of another assay is HCC-2998. The settings on record: Homo sapiens; HCC-2998, Colon Cancer; read-out: Percent growth. Here is the method: as §1, §2, §3, §4, §5, §6, §7, §8, §9, §10

With `O=S(=O)(NCCCNc1nccc(-n2cnc3ccccc32)n1)c1ccc(Cl)cc1` [12j, N-(3-((4-(1H-benzo [d]imidazol-1-yl)pyrimidin-2-yl)amino)propyl)-4-chloro benzenesulfonamide], the activity at 10 µM in the assay with MCF7 amounted to 89%; in the assay with A549/ATCC, 99%; in the assay with OVCAR-8, 90.8%; with SF-539, 91.9%; with OVCAR-3, 107%; in the assay with COLO 205, 110%. Further, the activity at 10 µM with IGROV1 stood at 114%; in the assay with NCI-H322M, 104%; in the assay with MDA-MB-435, 95.5%; in the assay on SN12C it was 91.7%; in the assay with MDA-MB-231/ATCC it was 89.4%; in the assay with HL-60(TB), 108%. The activity at 10 µM in the assay with LOX IMVI is 107%; with A498 it was 73%; in the assay on SF-268 it was 98.2%; in the assay on BT-549 it was 90.1%; with MALME-3M, 103%; in the assay on CCRF-CEM, 91.7%. The activity at 10 µM in the assay with DU-145 amounted to 100%; in the assay with OVCAR-5 it was 105%; in the assay with SK-OV-3, 117%; with HCT-116, 94.1%; in the assay with HCC-2998, 108%.
In the case of `O=S(=O)(NCCCNc1nccc(-n2cnc3ccccc32)n1)c1ccc(C(F)(F)F)cc1` [12l, N-(3-((4-(1H-benzo [d]imidazol-1-yl)pyrimidin-2-yl)amino)propyl)-4-(trifluoromethyl) benzenesulfonamide], the activity at 10 µM in the assay with MCF7 is 65.5%; in the assay on A549/ATCC it was 79%; in the assay with OVCAR-8, 60%; with SF-539 it was 74.5%; in the assay with OVCAR-3 it was 81.2%; with COLO 205, 78.2%. The activity at 10 µM was 74.3% with IGROV1; 89.9% with NCI-H322M; 72.1% with MDA-MB-435; 80.5% in the assay with SN12C; 68.7% in the assay with MDA-MB-231/ATCC; 89% in the assay with HL-60(TB). Also, the activity at 10 µM in the assay on LOX IMVI stood at 72.3%; in the assay on A498, 55.3%; in the assay on SF-268 it was 66.5%; with BT-549, 62.9%; in the assay with MALME-3M it was 94%; in the assay with CCRF-CEM, 51.9%. Besides, the activity at 10 µM came out at 83.5% in the assay on DU-145; 87.2% with OVCAR-5; 80.3% with SK-OV-3; 65.6% in the assay on HCT-116; 84.8% in the assay on HCC-2998.
In the case of `O=S(=O)(NCCCNc1nccc(-n2cnc3ccccc32)n1)c1ccc(Br)cc1` [12k, N-(3-((4-(1H-benzo [d]imidazol-1-yl)pyrimidin-2-yl)amino)propyl)-4-bromo benzenesulfonamide], the activity at 10 µM in the assay with MCF7 worked out at 86.7%; in the assay on A549/ATCC, 95%; in the assay with OVCAR-8, 82.5%; in the assay on SF-539, 85.2%; in the assay with OVCAR-3, 104%; in the assay with COLO 205, 108%. The activity at 10 µM in the assay on IGROV1 came to 101%; with NCI-H322M it was 103%; in the assay on MDA-MB-435, 92.6%; in the assay with SN12C, 89.2%; with MDA-MB-231/ATCC it was 83.6%; in the assay on HL-60(TB), 99.8%. In addition, the activity at 10 µM in the assay with LOX IMVI turned out to be 94.6%; in the assay with A498, 77.2%; in the assay with SF-268 it was 91.2%; with BT-549 it was 80.8%; in the assay with MALME-3M, 104%; in the assay with CCRF-CEM it was 83%. Besides, the activity at 10 µM worked out at 96.5% in the assay with DU-145; 97% in the assay with OVCAR-5; 109% with SK-OV-3; 90.3% in the assay with HCT-116; 112% in the assay with HCC-2998.
Turning to `O=S(=O)(NCCNc1nccc(-n2cnc3ccccc32)n1)c1ccc(C(F)(F)F)cc1` [12e, N-(2-((4-(1H-benzo [d]imidazol-1-yl)pyrimidin-2-yl)amino)ethyl)-4-(trifluoromethyl)benzenesulfonamide], the activity at 10 µM with MCF7 turned out to be 34.9%; with A549/ATCC it was 55.4%; with OVCAR-8 it was 63.5%; in the assay with SF-539, 64.8%; in the assay on OVCAR-3, 72.9%; in the assay with COLO 205 it was 64.9%. Also, the activity at 10 µM in the assay on IGROV1 stood at 66.4%; in the assay with NCI-H322M it was 85.3%; in the assay on MDA-MB-435, 64.4%; in the assay with SN12C, 72.5%; with MDA-MB-231/ATCC, 64%; with HL-60(TB) it was 73.8%. Also, the activity at 10 µM in the assay on LOX IMVI came out at 57.4%; in the assay with A498, 56.6%; in the assay on SF-268 it was 59.5%; in the assay with BT-549, 53.1%; in the assay on MALME-3M, 71.4%; in the assay with CCRF-CEM it was 57.6%. In addition, the activity at 10 µM worked out at 71.8% in the assay with DU-145; 86.2% in the assay on OVCAR-5; 62.2% in the assay with SK-OV-3; 40.1% with HCT-116; 80.5% in the assay on HCC-2998.
